# Experimental data: patent US6800612B2, “S-nitrosothiols as agents for the treatment of circulatory dysfunctions” (Lacer, S.A., priority 2000, dated 2004)
# Where two headings read alike, the source gives them in different places.
# Assays:
# platelets = test: Tests in vitro of the inhibition of the aggregation of the platelets (collagen 1 μg/mL); type: cell-based, human; details: for IC50: aggregation obtained with sub-maximal collagen concentration (1 μg/mL), read-out: IC50 (average ± SD), inhibition of the aggregation of the platelets; for inhibiting activity on platelets aggregation compared to the reference compound (GSNO): in words
# Source text: Tests In Vitro of the Inhibition of the Aggregation of the Platelets. The method used in the assays is substantially the same as described in following references: Loscalzo J, et al. En: Methods in nitric oxide research (Feelisch M, Stamler JS, eds.) John Wiley & Sons, Chichester, England, pp 583-591. Radomski MW, et al. Br J Pharmacol 1987;92:181-187. […], et al. Br J Pharmacol 1994;112:1071-1076. […] The obtained results are compared to those from the S-nitrosoglutathione (GSNO), which is used as reference product.
# arterial ring = test: Tests for in vitro vasodilatation (arterial rings contracted with 1 μM Norepinephrine); type: cell-based; details: for EC50: vasodilatation of 50% of arterial ring previously contracted with 1 μM Norepinephrine, 6 to 9 rings, read-out: CE50 (average ± SD), vasodilatation
# Method: Tests for In Vitro Vasodilatation. The method used in the assays is substantially the same as described in the following references: Furchgot, R. F. “Methods in nitric oxide research”. Feelisch & Stamler eds. John Wiley &Sons, Chichester, England, pp 567-581. Trongvanichnam, K, et al. Jpn J. […]., et al. Eur. J. Pharmacol. 1994; 258:47-55. The compounds are tested at 5 different concentrations, at a concentration range from 0,001 y 10 mM, using from 6 to 9 arterial rings for each compound. The obtained results are compared to those from the S-nitrosoglutathione (GSNO), which is used as reference product.
# [1] = test system: human washed platelet preparations; test: Test in vitro of the blockage of platelet aggregation inhibition by ODQ; type: cell-based; details: for blocking of the inhibiting effect by ODQ: IC50 dose of the compounds; for inhibition at 0.1 µM / inhibition at 0.3 µM / inhibition at 1 µM: Homo sapiens, Platelet; for inhibition at 1 µM: 1 μM compound
# Method: Test In Vitro of the Blockage of Platelet Aggregation Inhibition. The method used in the test is substantially the same as described in the references cited in example 8, completed with the reference: Moro MA, et al. Pr Nat Acad Sc USA. 1996 ;93:1480-5. The ODQ is tested in vitro to block the inhibition of platelet aggregation reached by the obtained products in human washed platelet preparations. […] The obtained results are compared to those from the GSNO (reference product) and with the values in absence of ODQ.
# human washed platelets = test: Tests in vitro of the increase of the intra-platelet levels of GMPc; type: cell-based; details: for GMPc intra-platelet level: human washed platelets
# Source text: Tests In Vitro of the Increase of the Intra-platelet Levels of GMPc. […] The method used in the test is substantially the same as described in the references cited in example 8. […] The obtained results are compared to those from the GSNO (reference product) and with the basal values.
compound,measurement,setting,value
N[N-γ-L-glutamyl-2-amino-2-(4-(4-S-nitrosomercapto-1-methyl-piperidin))acetyl ] glycine [Product obtained in example 5],IC50,platelets,47 ± 11 nM
same,inhibiting activity on platelets aggregation compared to the reference compound (GSNO),platelets,highly superior to that of the reference product
same,EC50,arterial ring,1890 ± 820 nM
same,% inhibition with ODQ,"[1]; 0.003 μM compound, ODQ 1 μM",0%
same,% inhibition without ODQ,"[1]; 0.003 μM compound, inhibition of the maximum aggregation",0%
same,% inhibition with ODQ,"[1]; 0.01 μM compound, ODQ 1 μM",0%
same,% inhibition without ODQ,"[1]; 0.01 μM compound, inhibition of the maximum aggregation",17%
same,% inhibition with ODQ,"[1]; 0.03 μM compound, ODQ 1 μM",0%
same,% inhibition without ODQ,"[1]; 0.03 μM compound, inhibition of the maximum aggregation",83 ± 1.4%
same,% inhibition with ODQ,"[1]; 0.1 μM compound, ODQ 1 μM",0%
same,% inhibition without ODQ,"[1]; 0.1 μM compound, inhibition of the maximum aggregation",96%
same,% inhibition with ODQ,"[1]; 0.3 μM compound, ODQ 1 μM",0%
same,% inhibition without ODQ,"[1]; 0.3 μM compound, inhibition of the maximum aggregation",96%
same,blocking of the inhibiting effect by ODQ,"[1]; ODQ 1 μM, in words",capable of blocking the inhibiting effect
same,blocking of the inhibition of aggregation by ODQ compared to the reference product,"[1]; ODQ 1 μM, at higher doses to that of the IC50, in words",better blocked
same,GMPc intra-platelet level,human washed platelets; 0.03 μM compound,1.60 ± 0.5 pmol/10^9 platelets
same,GMPc intra-platelet level,human washed platelets; 0.1 μM compound,1.50 ± 0.4 pmol/10^9 platelets
same,GMPc intra-platelet level,human washed platelets; 0.3 μM compound,6.50 ± 0.5 pmol/10^9 platelets
same,GMPc intra-platelet level,human washed platelets; 1 μM compound,21.1 ± 0.5 pmol/10^9 platelets
same,increase of intra-platelet levels of GMPc compared to GSNO,human washed platelets; in words,in a similar manner to that of the GSNO reference
same,"levels of GMPc at concentrations close to the IC50, compared to GSNO","human washed platelets; values close to the IC50, in words",lower as that of the GSNO
"CC(=O)NC(C(=O)O)C(Cc1ccccc1)(Cc1ccccc1)SN=O (stereo not drawn) [Product obtained in example 3, N-acetyl-2-amino-3-benzyl-3-S-ni-trosomercapto-4-phenyl-butanoic Acid]",IC50,platelets,240 ± 27 nM
same,EC50,arterial ring,630 ± 210 nM
"CC(=O)NC(C(=O)O)C1(SN=O)CCN(C)CC1 (stereo not drawn) [Product obtained in example 2, N-acetyl-2-amino-2-[4-(4-S-nitro-somercapto-1-methylpiperidin)] Acetic Acid]",IC50,platelets,190 ± 20 nM
same,vasodilating activity compared to the reference compound (GSNO),arterial ring; in words,highly superior to that of the reference product
same,EC50,arterial ring,24 ± 3 nM
N[N-γ-L-glutamyl-2-amino-2-(4-(4—S—nitrosomercapto)tetrahydropyran)) acetyl]glycine [Product obtained in example 4],IC50,platelets,200 ± 120 nM
same,EC50,arterial ring,1730 ± 270 nM
"N[C@@H](CCC(=O)NC(C(=O)NCC(=O)O)C(Cc1ccccc1)(Cc1ccccc1)SN=O)C(=O)O (stereo partly drawn) [Product obtained in example 6, N[N-γ-L-glutamyl-2-amino-3-benzyl-3-(S-nitrosomercapto)-4-phenylbutanoyl] glycine]",IC50,platelets,350 ± 110 nM
"N[C@@H](CCC(=O)N[C@@H](CSN=O)C(=O)NCC(=O)O)C(=O)O [GSNO, S-nitrosoglutathione, reference compound]",IC50,"platelets; Homo sapiens, Platelet",480 ± 190 nM
same,EC50,arterial ring,1560 ± 550 nM
same,inhibition at 0.1 µM,"[1]; 0.1 μM compound, ODQ 1 μM, read-out: % inhibition with ODQ",0%
same,inhibition at 0.1 µM,"[1]; 0.1 μM compound, inhibition of the maximum aggregation, read-out: % inhibition without ODQ",34.2 ± 25%
same,inhibition at 0.3 µM,"[1]; 0.3 μM compound, ODQ 1 μM, read-out: % inhibition with ODQ",3.3 ± 3%
same,inhibition at 0.3 µM,"[1]; 0.3 μM compound, inhibition of the maximum aggregation, read-out: % inhibition without ODQ",79.3 ± 17%
same,inhibition at 1 µM,"[1]; ODQ 1 μM, read-out: % inhibition with ODQ",32.6 ± 0.9%
same,inhibition at 1 µM,"[1]; inhibition of the maximum aggregation, read-out: % inhibition without ODQ",92.65 ± 0.9%
same,blocking of the inhibiting effect by ODQ,"[1]; ODQ 1 μM, in words",capable of blocking the inhibiting effect
same,GMPc intra-platelet level,human washed platelets; 0.1 μM compound,1 ± 0.5 pmol/10^9 platelets
same,GMPc intra-platelet level,human washed platelets; 0.3 μM compound,6.6 ± 0.6 pmol/10^9 platelets
same,GMPc intra-platelet level,human washed platelets; 1 μM compound,24 ± 0.5 pmol/10^9 platelets
same,GMPc intra-platelet level,human washed platelets; 3 μM compound,27.6 ± 6.0 pmol/10^9 platelets
"CC(=O)NC(C(=O)O)C1(SN=O)CCOCC1 (stereo not drawn) [Product obtained in example 1, N-acetyl-2-amino-2-[4-(4-S-Nitro-somercaptotetrahydropyran) ] Acetic Acid]",IC50,platelets,70 ± 20 nM
same,inhibiting activity on platelets aggregation compared to the reference compound (GSNO),platelets,highly superior to that of the reference product
same,EC50,arterial ring,375 ± 50 nM
